Measurements reported in PMC11084256, “Penifuranone A: A Novel Alkaloid from the Mangrove Endophytic Fungus Penicillium crustosum SCNU-F0006” (International Journal of Molecular Sciences, 2024).
Converted amounts (≈) assume the structure as drawn. Read-outs that look alike come from different tables or passages of the source.

Columns and labels:
[1] = tested on: Staphylococcus aureus (ATCC 12598); experiment: Antibacterial MIC, broth dilution method; type: cell-based; details: mean from three parallel experiments; for MIC: Staphylococcus aureus, ATCC12598, 24 h, read-out: minimum inhibitory concentration (MIC) against Staphylococcus aureus
Experimental: (§1) The bioactivity test screened the following four human pathogenic microorganisms: Pseudomonas aeruginosa (ATCC 9027); Salmonella typhimurium (ATCC 6539); Escherichia coli (ATCC 25922); and Staphylococcus aureus (ATCC 12598). The minimum inhibitory concentration was determined using the broth dilution method, with a minor modification. Bacteria were removed from the refrigerator and cultured dynamically at a constant temperature in a Mueller–Hinton Broth at room temperature for 24 h. The bacterial liquid was diluted with broth to 0.5 McFarland turbidity. The sample was prepared into an initial solution of 1 mg/mL with dimethyl sulfoxide (DMSO), and the concentrations of the 1st to 12th wells of the 96-well plate sample group were made by the double dilution method (mg/mL): 1, 0.5, 0.25, 0.125, and 0.0625. Each plate also contained a positive control (ciprofloxacin or carbendazim), as well as a sterile control and growth control (containing broth and bacterial liquid, no compound). The plates were incubated at 35 °C for 24 h. The use of 10 μL of a solution with a concentration of 11 mg/mL of Esazurin added to each well of a 96-well plate, followed by incubation at 37 °C for 3 h, allowed for the observation of color changes to determine the minimum inhibitory concentration (MIC) values.

[2] = tested on: Escherichia coli (ATCC 25922); experiment: Antibacterial MIC, broth dilution method; type: cell-based; details: mean from three parallel experiments; for MIC: Escherichia coli, ATCC25922, 24 h, read-out: minimum inhibitory concentration (MIC) against Escherichia coli
Experimental: as §1

[3] = tested on: Pseudomonas aeruginosa (ATCC 9027); experiment: Antibacterial MIC, broth dilution method; type: cell-based; details: mean from three parallel experiments; for MIC: Pseudomonas aeruginosa, ATCC9027, 24 h, read-out: minimum inhibitory concentration (MIC) against Pseudomonas aeruginosa
Experimental: as §1

[4] = tested on: Salmonella typhimurium (ATCC 6539); experiment: Antibacterial MIC, broth dilution method; type: cell-based; details: 24 h, mean from three parallel experiments; for MIC: Salmonella enterica, read-out: minimum inhibitory concentration (MIC) against Salmonella typhimurium
Experimental: as §1

[5] = tested on: Colletrichum litchi Tra; experiment: Antifungal MIC, broth dilution method; type: cell-based, Colletrichum litchi Trag; details: 72 h, means from three parallel experiments; for MIC: read-out: minimum inhibitory concentration (MIC) against Colletrichum litchi Tra
Experimental: (§2) The bioactivity test screened the following four phytopathogenic microorganisms: Fusarium oxysporum; Penicillium italicum; Banana Colletotrichum gloeosporioides; and Colletrichum litchi Trag. The minimum inhibitory concentration (MIC) was determined using the broth dilution method, with a minor modification. Fungi were removed from the refrigerator and cultured dynamically at a constant temperature in Potato Dextrose Broth at room temperature for 72 h. The fungal liquid was diluted with broth to 0.5 McFarland turbidity. The sample was prepared into an initial solution of 1 mg/mL with dimethyl sulfoxide (DMSO), and the concentrations of the 1st to 12th wells of the 96-well plate sample group were made by the double dilution method (mg/mL): 1, 0.5, 0.25, 0.125, and 0.0625. Each plate also contained a positive control (ciprofloxacin or carbendazim), as well as a sterile control and growth control (containing broth and fungal liquid, no compound). The plates were incubated at 35 °C for 72 h. The use of 10 μL of a solution with a concentration of 11 mg/mL of Esazurin added to each well of a 96-well plate, followed by incubation at 37 °C for 3 h, allowed for the observation of color changes to determine the minimum inhibitory concentration (MIC) values.

[6] = tested on: Penicillium italicum; experiment: Antifungal MIC, broth dilution method; type: cell-based; details: 72 h, means from three parallel experiments; for MIC: Penicillium italicum, read-out: minimum inhibitory concentration (MIC) against Penicillium italicum
Experimental: as §2

[7] = tested on: Fusarium oxysporum; experiment: Antifungal MIC, broth dilution method; type: cell-based; details: 72 h, means from three parallel experiments; for MIC: Fusarium oxysporum, read-out: minimum inhibitory concentration (MIC) against Fusarium oxysporum
Experimental: as §2

[8] = tested on: Banana Colletotrichum gloeosporioides; experiment: Antifungal MIC, broth dilution method; type: cell-based; details: 72 h, means from three parallel experiments; for MIC: Colletotrichum gloeosporioides, read-out: minimum inhibitory concentration (MIC) against Banana Colletotrichum gloeosporioides
Experimental: as §2

[9] = tested on: RAW 264.7 cells; experiment: MTT cell viability (cytotoxicity); type: cell-based; details: RAW 264.7 cells
Experimental: (§3) The MTT method was utilized to assess cell viability. RAW 264.7 cells, at a concentration of 5 × 10^5 cells/mL, were plated in 96-well plates and exposed to lipopolysaccharide (LPS, at 1 μg/mL) in the presence or absence of the test compounds for a duration of 24 h. Following this, 100 μL of a 2 mg/mL MTT solution was introduced into each well, and after a 4 h incubation, the resulting formazan precipitates were dissolved in 100 μL of DMSO. The optical density was then determined at 490 nm using a microplate reader (Multiskan GO, Thermo Scientific, Waltham, MA, USA). The results were presented as the average percentage of cell viability relative to the untreated control group.

[10] = DPPH scavenging assay; details: 30 min at 37 °C in the dark, read-out: Radical Scavenging Activity (IC50)
Experimental: The assay for scavenging 1,1-Diphenyl-2-picrylhydrazyl radical 2,2-Diphenyl-1-(2,4,6-trinitrophenyl)hydrazyl (DPPH free radicals) was conducted following a previously established modified protocol. The DPPH was dissolved in ethanol to prepare a 0.5 mmol/L DPPH ethanolic solution (10 mL), which was stored away from light. Subsequently, 100 μL of the DPPH solution was added to each well of a 96-well plate. The sample was prepared into an initial solution of 200 μM with ethanol, and the concentrations of the 1st to 12th wells of the 96-well plate sample group were made by the double dilution method (μM): 200,100, 50, 25, and 12.5 μM. The reaction was monitored by measuring the absorbance at 490 nm using a microplate reader (iMark, Bio-Rad, Hercules, CA, USA) after shaking the reaction for 30 min at 37 °C in the dark. The DPPH radical scavenging activity was determined by a comparison of the absorbance of the samples and a blank control. Vitamin C was used as a positive control at the same concentration as the other samples.

[11] = tested on: NO production in LPS-stimulated RAW 264.7 cells; experiment: Inhibition of LPS-stimulated NO production, Griess assay; type: cell-based; details: LPS (1 μg/mL)-stimulated RAW 264.7 cells
Experimental: Compounds 1–2 were evaluated for their inhibitory effects on LPS-stimulated NO production in RAW 264.7 cells using the Griess assay. The cell line RAW 264.7, obtained from the Cell Bank of the Chinese Academy of Sciences (CBCAS) in Shanghai, China, was propagated in Dulbecco’s Modified Eagle Medium (DMEM) supplemented with 10% Fetal Bovine Serum (FBS). In the logarithmic growth phase, the cells were digested with trypsin and inoculated into 96-well plates (1 × 10^5/well). After being cultured at 37 °C with 5% CO2 for 12 h, the cells were treated with DMEM containing different concentrations of compounds (0, 3.125, 6.25, 12.5, 25, 50, and 100 μM). Two hours later, the cells were treated with LPS at a concentration of […] (1 μg/mL) and incubated under standard cell culture conditions for a period of 24 h. Fifty microliters of cell supernatant was mixed with an equal volume of Griess reagent (1% anhydrous p-aminobenzene sulfonic acid and 0.1% N-1-naphthalene ethylenediamine hydrochloride in 5% concentrated phosphoric acid). Absorbance was measured with a microplate reader at 540 nm. The IC50 values were calculated using the SPSS 25.0 statistical software analysis package based on the inhibition rate of each group.

[12] = MTT cell viability (cytotoxicity); type: cell-based; details: mouse; for IC50 at 24 h: MTT assay, read-out: cytotoxic effects on RAW 264.7 cells (IC50)
Experimental: as §3

[13] = RAW 264.7 cells, MTT, evaluated with cell viability at 50 μM, read-out: Cytotoxicity (CC50)

Compound | IC50 [10] | MIC [5] | MIC [6] | MIC [7] | MIC [8] | MIC [1] | MIC [2] | MIC [3] | MIC [4] | IC50 ([11]; Mus musculus, RAW264.7, 24 h) | IC50 at 24 h ([12]; RAW 264.7 cells) | CC50 at 24 h [12, 13] | other results
3-hydroxy-4-(3-hydroxyphenyl)quinolin-2(1H)-one [Compound 3] | > 200 µM |  |  |  |  |  |  |  |  |  |  |  | minimum inhibitory concentration (MIC) against Staphylococcus aureus ([1]; 24 h): >1000 µg/mL; minimum inhibitory concentration (MIC) against Escherichia coli ([2]; 24 h): 1000 µg/mL; minimum inhibitory concentration (MIC) against Pseudomonas aeruginosa ([3]; 24 h): 125 µg/mL; minimum inhibitory concentration (MIC) against Salmonella typhimurium [4]: 1000 µg/mL; minimum inhibitory concentration (MIC) against Colletrichum litchi Tra [5]: 1000 µg/mL; minimum inhibitory concentration (MIC) against Penicillium italicum [6]: 500 µg/mL; minimum inhibitory concentration (MIC) against Fusarium oxysporum [7]: 250 µg/mL; minimum inhibitory concentration (MIC) against Banana Colletotrichum gloeosporioides [8]: >1000 µg/mL; IC50 ([9]; MTT assay, read-out: cytotoxic effects on RAW 264.7 cells (IC50)): < 50 µM; CC50 ([9]; MTT, evaluated with cell viability at 50 μM): < 50 µM
COC(=O)Nc1nc2ccccc2[nH]1 [Carbendazim, reference compound] |  | < 30 µg/mL | < 30 µg/mL | < 30 µg/mL | < 30 µg/mL |  |  |  |  |  |  |  | 
O=C(O)c1cn(C2CC2)c2cc(N3CCNCC3)c(F)cc2c1=O [Ciprofloxacin, reference compound] |  |  |  |  |  | < 30 µg/mL | < 30 µg/mL | < 30 µg/mL | < 30 µg/mL |  |  |  | 
CC1OC(=O)C(C2CCNC3=C2C(=O)OC3C)=C1O (stereo not shown) [Compound 1, penifuranone A] | 180 µM | 1000 µg/mL (≈ 3770 µM) | 250 µg/mL (≈ 942 µM) | 250 µg/mL (≈ 942 µM) | > 1000 µg/mL | > 1000 µg/mL | 1000 µg/mL (≈ 3770 µM) | 500 µg/mL (≈ 1880 µM) | 1000 µg/mL (≈ 3770 µM) | 42.2 µM | > 50 µM | > 50 µM | melting point: 156.7 to 158.2 °C; IC50 ([11]; 24 h): 42.2 ± 2.26 µM
CCCCCCCCCCCCCCCC(=O)OC1=C([C@@H]2CCN(C(=O)CCCCCCCCCCCCCCC)C3=C2C(=O)O[C@@H]3C)C(=O)O[C@@H]1C [Compound 1a] | > 200 µM | 1000 µg/mL (≈ 1350 µM) | 125 µg/mL (≈ 168 µM) | 250 µg/mL (≈ 337 µM) | > 1000 µg/mL | > 1000 µg/mL | > 1000 µg/mL | 125 µg/mL (≈ 168 µM) | 1000 µg/mL (≈ 1350 µM) |  | < 50 µM | < 50 µM | melting point: 76.6 to 77.2 °C
C[C@H]1OC(=O)C(CC2=C(O)[C@@H](C)OC2=O)=C1O [Compound 2, (+) - (5R, 5′R) - 3,3′-methylenebistetronic acid] | 120 µM | 500 µg/mL (≈ 2080 µM) | 250 µg/mL (≈ 1040 µM) | 250 µg/mL (≈ 1040 µM) | > 1000 µg/mL | > 1000 µg/mL | 1000 µg/mL (≈ 4160 µM) | 500 µg/mL (≈ 2080 µM) | 1000 µg/mL (≈ 4160 µM) | 37 ± 0.88 µM | > 50 µM | > 50 µM | 
O=c1[nH]c2ccccc2c(-c2ccccc2)c1O [Compound 4, 3-hydroxy-4-phenylquinolin-2(1H)-one] | > 200 µM | 1000 µg/mL (≈ 4210 µM) | 250 µg/mL (≈ 1050 µM) | 250 µg/mL (≈ 1050 µM) | > 1000 µg/mL | 1000 µg/mL (≈ 4210 µM) | > 1000 µg/mL | 500 µg/mL (≈ 2110 µM) | 1000 µg/mL (≈ 4210 µM) |  | < 50 µM | < 50 µM | 
C[C@@H]1C[C@H]2[C@@H]3CCC4=CC(=O)C=C[C@]4(C)[C@@]3(F)[C@@H](O)C[C@]2(C)[C@@]1(O)C(=O)CO [Dexamethasone, reference compound] |  |  |  |  |  |  |  |  |  | 58.2 ± 1.74 µM |  | > 50 µM | 
COc1ccc2c(c1)c(CC(=O)O)c(C)n2C(=O)c1ccc(Cl)cc1 [Indomethacin, reference compound] |  |  |  |  |  |  |  |  |  | 35.8 ± 5.7 µM |  |  | CC50 at 24 h [12]: > 50 µM
O=C1O[C@H]([C@@H](O)CO)C(O)=C1O [Vitamin C, reference compound] | 68.4 µM |  |  |  |  |  |  |  |  |  |  |  | 
